This is an account of results in patent publication US4160026A (priority 1976, dated 1979).

The subject of one series is cell-mediated immunity. The experiment in a line: Cell-mediated immunity, delayed hypersensitivity (picryl chloride) in Sarcoma 180-inoculated mice. It is filed as in vivo, ICR-JCL strain mice. The note with it: 75 mg/kg. The procedure:
The tests were carried out by the following procedure: groups of ICR-JCL strain mice (six male mice per group, average body weight 31.9±3 g.) were inoculated with the ascites tumor "Sarcoma 180" (10^6 cells). 24 Hours after the inoculation of the tumor cells, each of the drug samples to be tested was subcutaneously administered and a known anti-tumor agent (cyclophosphamide) was intraperitoneally administered to the inoculated mice. Two days after the inoculation, an ethanolic solution of 5% picryl chloride was applied onto the hair-shaved abdomen of the mice to establish the sensitization. Subsequently, each drug sample under test was subcutaneously administered once a day for the successive four days. 4 Days after the inoculation, cyclophosphamide was again administered. Nine days after the inoculation, a solution of 1% picryl chloride in olive oil was challenged onto the two sides of both ears of the mice to establish the secondary sensitization. 24 Hours after the secondary sensitization, the degree (%) of increase in thickness of the ears was calculated for the test mice. The extent of the swelling which serves as a measure of stimulating cell-mediated immunity involved can be evaluated from the percentage increase in the ear thickness.

For a further series, the system named is Sarcoma 180. Briefly: Solid tumor of Sarcoma 180, treatment after inoculation. The following applies: 2 mg/kg, i.p., 5 days after inoculation. It is filed as in vivo, ICR-strain mice. The protocol: In a separate experiment, male ICR-strain mice (five in each group with an average body weight of 20±2 g) were inoculated in the flank with 7×10^6 live tumor cells of Sarcoma 180 in 0.05 ml. After 24 hours, each group of mice was treated by intraperitoneal injection of 0.1 ml. of saline or sample dissolved in saline for 5 consecutive days. Seven days after the inoculation, all mice were sacrificed and the primary subcutaneous tumor excised and weighed.
In the above table, degree (%) of inhibition to the growth of tumor was calculated according to the following equation: [formula]

A short description of another series: Solubility. It is filed as physicochemical.
The test system of a further series is various bacteria. The experiment in a line: Antibacterial activity with combined use of maltose or maltodextrin. It is filed as cell-based. The note with it: under the above-mentioned testing conditions. The procedure:
These paper discs were placed on an upper plate layers of the known mycin-assay incubation medium comprising 0.5% peptone, 0.3% meat extract and 1.5% agar (pH 6) which contained the test microorganism to be incubated therein and which was laid over the lower layer of agar medium in the assaying dish. The incubation was made at a temperature of 37° C. overnight, and subsequently the diameter of the inhibition zones formed around the paper discs was measured. […] These tests were repeated in the same manner as above but with additional incorporation of 1.25 mg/cc of maltotriose into the upper plate layer of the mycin-assay incubation medium.

As for `O=P1(N(CCCl)CCCl)NCCCO1` (stereo not shown) [Cyclophosphamide, N,N-bis (2-chloroethyl)tetrahydro-2H-1,3,2-oxazophosphorin-2-amine-2-oxide], the “Degree of increase in ear thickness” value in the series with cell-mediated immunity is given as 4.0 ± 2.60 ×10^-3 cm. The compound also returned a percentage increase in the series on cell-mediated immunity (untreated = 100.0) of 51.9%.

Regarding `CO[C@@]12[C@H](COC(N)=O)C3=C(C(=O)C(C)=C(N)C3=O)N1C[C@@H]1N[C@@H]12` [Mitomycin C, mitomycin C], in the series with Sarcoma 180, the “Degree (%) of inhibition to tumor growth” value was determined as 45% and the Tumor weight was 0.43 g.

As to `OC[C@H]1O[C@H](O[C@H]2[C@H](O)[C@@H](O)[C@@H](O[C@H]3[C@H](O)[C@@H](O)[C@@H](O[C@H]4[C@H](O)[C@@H](O)[C@@H](O[C@H]5[C@H](O)[C@@H](O)[C@@H](O[C@H]6[C@H](O)[C@@H](O)C(O)O[C@@H]6CO)O[C@@H]5CO)O[C@@H]4CO)O[C@@H]3CO)O[C@@H]2CO)[C@H](O)[C@@H](O)[C@@H]1O` (stereo partly shown) [maltohexaose], the Solubility result in the series “Solubility” (in acetone) is listed as “not soluble”; in “Solubility” (in ethanol) it was “not soluble”; in “Solubility” (in methanol), “sparingly soluble”; in “Solubility” (in water), “readily soluble”.

For the compound `OC[C@H]1O[C@H](O[C@H]2[C@H](O)[C@@H](O)[C@@H](O[C@H]3[C@H](O)[C@@H](O)[C@@H](O[C@H]4[C@H](O)[C@@H](O)[C@@H](O[C@H]5[C@H](O)[C@@H](O)C(O)O[C@@H]5CO)O[C@@H]4CO)O[C@@H]3CO)O[C@@H]2CO)[C@H](O)[C@@H](O)[C@@H]1O` (stereo partly shown) [maltopentaose], the Solubility result was “not soluble” in the series “Solubility” (in acetone), “not soluble” in the series “Solubility” (in ethanol), “sparingly soluble” in “Solubility” (in methanol) and “readily soluble” in the series “Solubility” (in water).

Regarding `OC[C@H]1O[C@H](O[C@H]2[C@H](O)[C@@H](O)[C@@H](O[C@H]3[C@H](O)[C@@H](O)C(O)O[C@@H]3CO)O[C@@H]2CO)[C@H](O)[C@@H](O)[C@@H]1O` (stereo partly shown) [maltotriose], in the series with various bacteria, the “Antibacterial activity of maltodextrins alone” value was “do not exhibit any antibacterial activity”.
